Where two headings read alike, the source gives them in different places.
Target: recombinant human SAE enzyme (Homo sapiens (Human), UniProt Q9UBT2)
Test: SAE HTRF enzyme assay
Assay type: biochemical
Settings: for inhibition at 0.111 µM: read-out: Percent Inhibition
In short: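 This HTRF format monitors Sumo-Flag–Ubc9-GST thioester formation catalysed by 0.11 nM human SAE with 0.5 μM ATP over 105 min at 24° C. Inhibition is expressed at a single concentration or as IC50.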

[1] = SAE inhibition at compound concentration 0.111 μM
[2] = SAE inhibition, class symbols, legend in nM

Chain of recombinant human SAE enzyme (Q9UBT2 whole entry): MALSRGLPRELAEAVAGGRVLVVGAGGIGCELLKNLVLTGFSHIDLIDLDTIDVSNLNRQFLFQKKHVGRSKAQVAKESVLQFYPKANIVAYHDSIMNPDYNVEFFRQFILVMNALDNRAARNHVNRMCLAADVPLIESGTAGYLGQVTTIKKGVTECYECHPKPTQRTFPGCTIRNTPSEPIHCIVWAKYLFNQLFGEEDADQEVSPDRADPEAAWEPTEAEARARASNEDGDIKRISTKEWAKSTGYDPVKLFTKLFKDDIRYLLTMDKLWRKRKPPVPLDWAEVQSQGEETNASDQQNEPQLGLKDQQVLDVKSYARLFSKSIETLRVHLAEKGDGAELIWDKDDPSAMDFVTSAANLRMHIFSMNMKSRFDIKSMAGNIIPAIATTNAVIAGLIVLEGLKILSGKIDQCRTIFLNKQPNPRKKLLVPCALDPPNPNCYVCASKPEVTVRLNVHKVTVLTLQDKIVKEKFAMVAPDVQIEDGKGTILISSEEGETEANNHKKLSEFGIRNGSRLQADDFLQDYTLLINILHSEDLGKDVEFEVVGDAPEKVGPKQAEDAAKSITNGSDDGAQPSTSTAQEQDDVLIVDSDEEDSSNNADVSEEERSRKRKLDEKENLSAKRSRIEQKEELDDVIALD
Chain of recombinant human SAE enzyme (Q9UBE0 whole entry partner): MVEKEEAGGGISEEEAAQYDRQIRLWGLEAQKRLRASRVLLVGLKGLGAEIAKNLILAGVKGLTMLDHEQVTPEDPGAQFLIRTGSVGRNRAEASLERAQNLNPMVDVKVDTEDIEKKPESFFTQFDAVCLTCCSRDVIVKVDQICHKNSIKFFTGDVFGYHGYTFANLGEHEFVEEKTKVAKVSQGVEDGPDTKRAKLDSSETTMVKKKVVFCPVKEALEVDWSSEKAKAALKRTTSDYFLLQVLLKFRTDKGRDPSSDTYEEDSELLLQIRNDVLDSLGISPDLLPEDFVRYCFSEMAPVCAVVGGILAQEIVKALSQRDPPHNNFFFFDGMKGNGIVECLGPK

SMILES: CO[C@H](c1cccc(Cl)c1)c1cc(C(=O)c2cncnc2N[C@@H]2C[C@H](COS(N)(=O)=O)[C@@H](O)C2)sc1Cl (mixture of isomers) [I-90, [(1R,2S,4R)-4-{[5-({5-chloro-4-[(R)-(3-chlorophenyl)(methoxy)methyl]-2-thienyl}carbonyl)pyrimidin-4-yl]amino}-2-hydroxycyclopentyl]methyl sulfamate and [(1R,2S,4R)-4-{[5-({5-chloro-4-[(S)-(3-chlorophenyl)(methoxy)methyl]-2-thienyl}carbonyl)pyrimidin-4-yl]amino}-2-hydroxycyclopentyl]methyl sulfamate]
- Percent Inhibition (Concentration 0.111 μM): 97
- IC50 (class symbols A/B/C): < 10 nM

SMILES: NS(=O)(=O)OC[C@H]1C[C@@H](Nc2ncncc2C(=O)c2cc(C3(c4cccc(Cl)c4)CCCO3)cs2)C[C@@H]1O (single isomer, unassigned) [I-20b, [(1R,2S,4R)-4-{[5-({4-[(2S)-2-(3-chlorophenyl)tetrahydrofuran-2-yl]-2-thienyl}carbonyl)pyrimidin-4-yl]amino}-2-hydroxycyclopentyl]methyl sulfamate or [(1R,2S,4R)-4-{[5-({4-[(2R)-2-(3-chlorophenyl)tetrahydrofuran-2-yl]-2-thienyl}carbonyl)pyrimidin-4-yl]amino}-2-hydroxycyclopentyl]methyl sulfamate]
- Percent Inhibition (Concentration 0.111 μM): 99
- IC50 (class symbols A/B/C): < 10 nM

SMILES: NS(=O)(=O)OC[C@H]1C[C@@H](Nc2ncncc2C(=O)c2cc(Sc3cccc(Cl)c3)c(Cl)s2)C[C@@H]1O [I-175, [(1R,2S,4R)-4-{[5-({5-chloro-4-[(3-chlorophenyl)sulfanyl]-2-thienyl}carbonyl)pyrimidin-4-yl]amino}-2-hydroxycyclopentyl]methyl sulfamate]
- inhibition at 0.111 µM (Concentration 0.111 μM): 90%
- IC50 (class symbols A/B/C): 10 to 100 nM

SMILES: NS(=O)(=O)OC[C@H]1C[C@@H](Nc2ncncc2C(=O)c2cc(COc3ccccc3I)cs2)C[C@@H]1O [I-161, [(1R,2S,4R)-2-Hydroxy-4-{[-({4-(2-iodophenoxy)methyl]-2-thienyl}carbonyl)pyrimidin-4-yl]amino}cyclopentyl]methyl sulfamate]
- Percent Inhibition (Concentration 0.111 μM): 91
- IC50 (class symbols A/B/C): < 10 nM

SMILES: Cc1sc(C(=O)c2cncnc2N[C@@H]2C[C@H](COS(N)(=O)=O)[C@@H](O)C2)cc1C1OCCc2oc(Cl)cc21 (single isomer, unassigned) [I-298b, [(1R,2S,4R)-4-{[5-({4-[(4R)-2-chloro-6,7-dihydro-4H-furo[3,2-c]pyran-4-yl]-5-methyl-2-thienyl}carbonyl)pyrimidin-4-yl]amino}-2-hydroxycyclopentyl]methyl sulfamate or [(1R,2S,4R)-4-{[5-({4-[(4S)-2-chloro-6,7-dihydro-4H-furo[3,2-c]pyran-4-yl]-5-methyl-2-thienyl}carbonyl)pyrimidin-4-yl]amino}-2-hydroxycyclopentyl]methyl sulfamate]
- Percent Inhibition [1]: 98%
- IC50 [2]: < 10 nM

SMILES: Cc1ccn(Cc2csc(C(=O)c3cncnc3N[C@@H]3C[C@H](COS(N)(=O)=O)[C@@H](O)C3)c2)c1 [I-170, [(1R,2S,4R)-2-Hydroxy-4-({[5-({4-[(3-methyl-1H-pyrrol-1-yl)methyl]-2-thienyl}carbonyl)pyrimidin-4-yl]amino}cyclopentyl]methyl sulfamate]
- Percent Inhibition (Concentration 0.111 μM): 91
- IC50 (class symbols A/B/C): 10 to 100 nM

SMILES: NS(=O)(=O)OC[C@H]1C[C@@H](Nc2ncncc2C(=O)c2cc([C@H]3OCCc4cccc(Cl)c43)cs2)C[C@@H]1O [I-365, [(1R,2S,4R)-4-[[5-[4-[(1S)-chloroisochroman-1-yl]thiophene-2-carbonyl]pyrimidin-4-yl]amino]-2-hydroxy-cyclopentyl]methyl sulfamate and [(1R,2S,4R)-4-[[5-[4-[(1R)-8-chloroisochroman-1-yl]thiophene-2-carbonyl]pyrimidin-4-yl]amino]-2-hydroxy-cyclopentyl]methyl sulfamate]
- Percent Inhibition [1]: 62%
- IC50 [2]: 10 to 100 nM

SMILES: NS(=O)(=O)OC[C@H]1C[C@@H](Nc2ncncc2C(=O)c2ccc(Cc3ccccc3)o2)C[C@@H]1O [I-127, [(1R,2S,4R)-4-{[5-(5-benzyl-2-furoyl)pyrimidin-4-yl]amino}-2-hydroxycyclopentyl]methyl sulfamate]
- inhibition at 0.111 µM (Concentration 0.111 μM): 95%
- IC50 (class symbols A/B/C): < 10 nM

SMILES: NC(c1cccc(Br)c1)c1cc(C(=O)c2cncnc2NC2CC(O)C(COS(N)(=O)=O)C2)sc1Cl (mixture of isomers) [I-22, [(1R,2S,4R)-4-{[5-({4-[(R)-amino(3-bromophenyl)methyl]-5-chloro-2-thienyl}carbonyl)pyrimidin-4-yl]amino}-2-hydroxycyclopentyl]methyl sulfamate and [(1R,2S,4R)-4-{[5-({4-[(S)-amino(3-bromophenyl)methyl]-5-chloro-2-thienyl}carbonyl)pyrimidin-4-yl]amino}-2-hydroxycyclopentyl]methyl sulfamate]
- Percent Inhibition (Concentration 0.111 μM): 99
- IC50 (class symbols A/B/C): < 10 nM

SMILES: NS(=O)(=O)OC[C@H]1C[C@@H](Nc2ncncc2C(=O)c2cc(C3OCCc4ccc(Cl)cc43)cs2)C[C@@H]1O (single isomer, unassigned) [I-261a, [(1R,2S,4R)-4-{[5-({4-[(1R)-7-chloro-3,4-dihydro-1H-isochromen-1-yl]-2-thienyl}carbonyl)pyrimidin-4-yl]amino}-2-hydroxycyclopentyl]methyl sulfamate or [(1R,2S,4R)-4-{[5-({4-[(1S)-7-chloro-3,4-dihydro-1H-isochromen-1-yl]-2-thienyl}carbonyl)pyrimidin-4-yl]amino}-2-hydroxycyclopentyl]methyl sulfamate]
- Percent Inhibition (Concentration 0.111 μM): 76
- IC50 (class symbols A/B/C): 10 to 100 nM

SMILES: Cc1sc(C(=O)c2cncnc2N[C@@H]2C[C@H](COS(N)(=O)=O)[C@@H](OC(=O)[C@@H](N)C(C)C)C2)cc1[C@@H]1OCCc2ccc(Cl)cc21 [I-338, (1S,2R,4R)-4-{[5-({4-[(1R)-7-Chloro-3,4-dihydro-1H-isochromen-1-yl]-5-methyl-2-thienyl}carbonyl)pyrimidin-4-yl]amino}-2-[(sulfamoyloxy)methyl]cyclopentyl (2S)-2-amino-3-methylbutanoate]
- inhibition at 0.111 µM [1]: 56%
- IC50 [2]: 10 to 100 nM

SMILES: N[C@@H](c1cccc(Br)n1)c1cc(C(=O)c2cncnc2N[C@@H]2C[C@H](COS(N)(=O)=O)[C@@H](O)[C@H]2O)sc1Cl (single isomer, unassigned) [I-10a, [(1R,2R,3S,4R)-4-{[5-({4-[(R)-amino(6-bromopyridin-2-yl)methyl]-5-chloro-2-thienyl}carbonyl)pyrimidin-4-yl]amino}-2,3-dihydroxycyclopentyl]methyl sulfamate or [(1R,2R,3S,4R)-4-{[5-({4-[(S)-amino(6-bromopyridin-2-yl)methyl]-5-chloro-2-thienyl}carbonyl)pyrimidin-4-yl]amino}-2,3-dihydroxycyclopentyl]methyl sulfamate]
- Percent Inhibition (Concentration 0.111 μM): 100
- IC50 (class symbols A/B/C): < 10 nM

SMILES: NS(=O)(=O)OC[C@H]1C[C@@H](Nc2ncncc2C(=O)c2cc(CN3CCc4sccc4C3)cs2)C[C@@H]1O [I-168, {(1R,2S,4R)-4-[(5-{[4-(6,7-dihydrothieno[3,2-c]pyridin-5(4H)-ylmethyl)-2-thienyl]carbonyl}pyrimidin-4-yl)amino]-2-hydroxycyclopentyl}methyl sulfamate]
- inhibition at 0.111 µM (Concentration 0.111 μM): 90%
- IC50 (class symbols A/B/C): 10 to 100 nM

SMILES: Cc1sc(C(=O)c2cncnc2N[C@@H]2C[C@H](COS(N)(=O)=O)[C@@H](O)C2)cc1[C@H]1OCCc2ccc(Cl)cc21 [I-257a, [(1R,2S,4R)-4-{[5-({4-[(1S)-7-chloro-3,4-dihydro-1H-isochromen-1-yl]-5-methyl-2-thienyl}carbonyl)pyrimidin-4-yl]amino}-2-hydroxycyclopentyl]methyl sulfamate]
- inhibition at 0.111 µM (Concentration 0.111 μM): 74%
- IC50 (class symbols A/B/C): 10 to 100 nM

SMILES: NS(=O)(=O)OC[C@H]1C[C@@H](Nc2ncncc2C(=O)c2cc([S@+]([O-])c3cccc(Cl)c3)c(Cl)s2)C[C@@H]1O [I-94, [(1R,2S,4R)-4-({[5-({5-Chloro-4-[(R)-(3-chlorophenyl)sulfinyl]-2-thienyl}carbonyl)pyrimidin-4-yl]amino}-2-hydroxycyclopentyl]methyl sulfamate and [(1R,2S,4R)-4-{[5-({5-chloro-4-[(S)-(3-chlorophenyl)sulfinyl]-2-thienyl}carbonyl)pyrimidin-4-yl]amino}-2-hydroxycyclopentyl]methyl sulfamate]
- Percent Inhibition (Concentration 0.111 μM): 98
- IC50 (class symbols A/B/C): < 10 nM

SMILES: C[C@@]1(c2csc(C(=O)c3cncnc3N[C@@H]3C[C@H](COS(N)(=O)=O)[C@@H](O)C3)c2)NCCc2ccccc21.C[C@]1(c2csc(C(=O)c3cncnc3N[C@@H]3C[C@H](COS(N)(=O)=O)[C@@H](O)C3)c2)NCCc2ccccc21 (mixture of isomers) [I-318, [(1R,2S,4R)-2-hydroxy-4-{[5-({4-[(1R)-1-methyl-1,2,3,4-tetrahydroisoquinolin-1-yl]-2-thienyl}carbonyl)pyrimidin-4-yl]amino}cyclopentyl]methyl sulfamate and [(1R,2S,4R)-2-hydroxy-4-{[5-({4-[(1S)-1-methyl-1,2,3,4-tetrahydroisoquinolin-1-yl]-2-thienyl}carbonyl)pyrimidin-4-yl]amino}cyclopentyl]methyl sulfamate]
- Percent Inhibition [1]: 95%
- IC50 [2]: < 10 nM

SMILES: COc1ccccc1OCc1csc(C(=O)c2cncnc2N[C@@H]2C[C@H](COS(N)(=O)=O)[C@@H](O)C2)c1 [I-80, [(1R,2S,4R)-2-hydroxy-4-{[5-({4-[(2-methoxyphenoxy)methyl]-2-thienyl}carbonyl)pyrimidin-4-yl]amino}cyclopentyl]methyl sulfamate]
- inhibition at 0.111 µM (Concentration 0.111 μM): 98%
- IC50 (class symbols A/B/C): < 10 nM

SMILES: Cc1sc(C(=O)c2cncnc2N[C@@H]2C[C@H](COS(N)(=O)=O)[C@@H](O)C2)cc1[C@H]1SCc2ccc(Cl)cc21 (racemic) [I-359b, [(1RS,2SR,4RS)-4-[5-[4-[(1S)-6-chloro-1,3-dihydro-2-benzothiophene-1-yl]-5-methyl-thiophene-2-carbonyl]pyrimidin-4-yl]amino]-2-hydroxy-cyclopentyl]methyl sulfamate]
- Percent Inhibition [1]: 95%
- IC50 [2]: < 10 nM
